US11357246B2, “High intensity sweeteners” (Firmenich Incorporated, priority 2015, dated 2022)

Tests used:
[1] = Paired comparison testing (2-AFC) of sweet intensity versus 300 ppm Rebaudioside A by trained panelists; type: in vivo; settings: for Sample selected as sweeter by panelists, Total: LSB pH ~7.1; for Sweetness compared with 300 ppm Rebaudioside A (2-AFC): 0.25 mL sample, LSB pH ~7.1, 0% ethanol
Method: Paired comparison tests (2-Alternative Forced Choice difference tests, i.e., 2-AFC) were used to determine sweet intensity equivalence between samples prepared with Rebaudioside A and the test sweet compound. Trained external panelists were used for the taste tests.
2-AFC tests, compound solutions were tested against 300 ppm Rebaudioside A to determine how they matched in sweet intensity. Panelists tasted both samples and indicated which sample was sweeter in each pair. Panelists rinsed their mouths with water prior to starting any test. Samples were presented to panelists in randomized, counterbalanced pairs and were labeled with 3-digit blinding codes. Panelists rinsed with water between samples as well as between pairs. There was a 90 second delay to clear the mouth of any tastes after each pair evaluation. Three replicates of each test were performed.
The 2-AFC data was analyzed to determine significant differences between 300 ppm Rebaudioside A and compound solutions using a probability table for a two-tailed test (alpha=0.05).
The paired comparison testing was performed using a 0.25 mL sample size, and all samples were made with Low Sodium Buffer (LSB) pH ˜7.1 and contain 0% ethanol.

[2] = biological target: T1, hT1R2/hT1R3 (Homo sapiens, UniProt Q7RTX0+Q8TE23); assay: HTS-Sweet: FLIPR calcium fluorometric imaging assay in cells stably expressing the human sweet taste receptor and a promiscuous G protein; type: cell-based; settings: FLIPR, Fluo-4AM, 10 concentrations 0.4 μM to 200 μM in duplicates; read-out: Compound EC50s for hT1R2/hT1R3
T1 construct: expressed in transfected cells; parental cells lack the receptor
T1 sequence (Q8TE23 20-839): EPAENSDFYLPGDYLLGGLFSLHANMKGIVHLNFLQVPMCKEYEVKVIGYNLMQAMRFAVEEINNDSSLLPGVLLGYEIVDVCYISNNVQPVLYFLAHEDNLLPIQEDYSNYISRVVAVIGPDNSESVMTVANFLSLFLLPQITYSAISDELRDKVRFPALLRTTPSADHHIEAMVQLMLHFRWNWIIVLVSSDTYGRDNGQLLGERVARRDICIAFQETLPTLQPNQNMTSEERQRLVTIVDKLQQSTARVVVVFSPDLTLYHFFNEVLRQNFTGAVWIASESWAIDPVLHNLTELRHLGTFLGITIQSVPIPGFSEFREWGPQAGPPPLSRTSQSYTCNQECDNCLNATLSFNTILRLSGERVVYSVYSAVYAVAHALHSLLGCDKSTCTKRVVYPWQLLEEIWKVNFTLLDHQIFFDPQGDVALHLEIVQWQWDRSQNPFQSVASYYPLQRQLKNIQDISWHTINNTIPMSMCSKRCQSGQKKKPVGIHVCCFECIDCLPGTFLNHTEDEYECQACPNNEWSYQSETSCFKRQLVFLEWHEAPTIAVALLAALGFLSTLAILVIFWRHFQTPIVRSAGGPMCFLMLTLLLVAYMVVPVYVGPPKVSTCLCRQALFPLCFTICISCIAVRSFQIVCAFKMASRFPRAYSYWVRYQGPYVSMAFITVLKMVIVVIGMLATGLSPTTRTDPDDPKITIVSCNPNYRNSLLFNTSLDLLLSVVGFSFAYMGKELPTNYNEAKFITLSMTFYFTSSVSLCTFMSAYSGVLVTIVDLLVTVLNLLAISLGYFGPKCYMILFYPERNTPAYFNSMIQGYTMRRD
T1 sequence (Q7RTX0 21-852): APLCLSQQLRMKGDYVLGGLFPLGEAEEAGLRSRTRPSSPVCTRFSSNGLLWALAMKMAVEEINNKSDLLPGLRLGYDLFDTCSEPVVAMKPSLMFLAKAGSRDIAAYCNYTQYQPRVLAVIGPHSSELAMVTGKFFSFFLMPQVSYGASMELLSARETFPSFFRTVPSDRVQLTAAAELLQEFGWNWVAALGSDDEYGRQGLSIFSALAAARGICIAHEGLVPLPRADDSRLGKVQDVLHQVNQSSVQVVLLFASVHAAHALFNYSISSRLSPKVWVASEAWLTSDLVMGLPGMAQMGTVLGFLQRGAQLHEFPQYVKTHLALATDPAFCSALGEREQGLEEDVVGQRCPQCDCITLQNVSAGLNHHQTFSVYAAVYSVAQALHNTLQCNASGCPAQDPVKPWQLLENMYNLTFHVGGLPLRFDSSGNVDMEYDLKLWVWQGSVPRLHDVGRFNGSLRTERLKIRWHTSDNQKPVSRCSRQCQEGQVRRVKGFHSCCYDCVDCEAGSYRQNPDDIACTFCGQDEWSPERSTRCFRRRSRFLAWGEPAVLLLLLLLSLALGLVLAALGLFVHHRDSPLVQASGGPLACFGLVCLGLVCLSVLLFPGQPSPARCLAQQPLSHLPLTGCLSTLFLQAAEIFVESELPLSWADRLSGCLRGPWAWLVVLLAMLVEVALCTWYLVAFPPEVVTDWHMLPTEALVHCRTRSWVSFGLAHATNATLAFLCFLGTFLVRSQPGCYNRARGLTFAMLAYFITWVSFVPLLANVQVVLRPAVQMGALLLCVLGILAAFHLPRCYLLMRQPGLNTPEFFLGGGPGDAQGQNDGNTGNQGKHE
Method: Compound activity (EC50) was determined using an automated fluorometric imaging assay on a FLIPR instrument (Fluorometric […] Plate Reader, Molecular Devices, Sunnyvale, Calif.). Cell stably expressing the human sweet taste receptor and a promiscuous G protein were seeded into 384-well plates (at approximately 40,000 cells per well). Cells were grown for 24 hours at 37° C. Cells were then loaded with the calcium dye Fluo-4AM (Molecular Probes, Eugene, Oreg.), 4 μM in a phosphate buffered saline (D-PBS) (Invitrogen, Carlsbad, Calif.), for 1 hour at room temperature. After replacement with 25 μl D-PBS, stimulation was performed in the FLIPR instrument and at room temperature by the addition of 25 μl D-PBS supplemented with different stimuli at concentrations corresponding to twice the desired final level. Receptor activity was quantified by determining the maximal fluorescence increases (using a 480 nm excitation and 535 nm emission) after normalization to basal fluorescence intensity measured before stimulation.
For dose-responses analysis, stimuli were presented in duplicates at 10 different concentrations ranging from 0.4 μM to 200 μM. EC50 s were determined using a non-linear regression algorithm, where the Hill slope, bottom asymptotes and top asymptotes were allowed to vary.

[3] = 300 ppm Compound 1 vs 300 ppm Rebaudioside A, n = 45 (15 panelists × 3 reps), p-value 0.072
[4] = 250 ppm Compound 18 vs 300 ppm Rebaudioside A, n = 36 (12 panelists × 3 reps), p-value 0.681
[5] = 300 ppm Compound 18 vs 300 ppm Rebaudioside A, n = 42 (14 panelists × 3 reps), p-value 0.044

| SMILES | Sample selected as sweeter by panelists, Total [1, 3] | Sweetness compared with 300 ppm Rebaudioside A (2-AFC) ([1]; test compound at 300 ppm) | Sample selected as sweeter by panelists, Total [1, 4] | Sample selected as sweeter by panelists, Total [1, 5] | Sweetness compared with 300 ppm Rebaudioside A (2-AFC) ([1]; test compound at 250 ppm) | EC50 [2] [µM] |
| --- | --- | --- | --- | --- | --- | --- |
| C[C@H](CC[C@@H](O[C@@H]1O[C@H](CO)[C@@H](O)[C@H](O)[C@H]1O[C@@H]1O[C@H](CO)[C@@H](O)[C@H](O)[C@H]1O)C(C)(C)O)C1CC[C@@]2(C)C3CC=C4C(CC[C@H](O[C@@H]5O[C@H](CO)[C@@H](O[C@@H]6O[C@H](CO)[C@@H](O)[C@H](O)[C@H]6O)[C@H](O)[C@H]5O)C4(C)C)[C@]3(C)[C@H](O)C[C@]12C (stereo partly shown) [Compound 1] | 16 | not significantly different in sweetness |  |  |  |  |
| C[C@H](CC[C@@H](O[C@@H]1O[C@H](CO)[C@@H](O)[C@H](O)[C@H]1O[C@@H]1O[C@H](CO)[C@@H](O)[C@H](O[C@@H]2O[C@H](CO)[C@@H](O)[C@H](O)[C@H]2O)[C@H]1O)C(C)(C)O)C1CC[C@@]2(C)C3CC=C4C(CC[C@H](O[C@@H]5O[C@H](CO)[C@@H](O)[C@H](O[C@@H]6O[C@H](CO)[C@@H](O)[C@H](O)[C@H]6O)[C@H]5O)C4(C)C)[C@]3(C)[C@H](O)C[C@]12C (stereo partly shown) [Compound 18] |  | significantly sweeter | 20 | 28 | not significantly different in sweetness |  |
| C[C@H](CC[C@@H](O[C@@H]1O[C@H](CO)[C@@H](O[C@@H]2O[C@H](CO)[C@@H](O)[C@H](O)[C@H]2O)[C@H](O)[C@H]1O[C@@H]1O[C@H](CO)[C@@H](O)[C@H](O)[C@H]1O)C(C)(C)O)C1CC[C@@]2(C)C3CC=C4C(CC[C@H](O)C4(C)C)[C@]3(C)[C@H](O)C[C@]12C (stereo partly shown) [Compound 35] |  |  |  |  |  | 17 to 30 |
| C=C1C[C@@]23CC[C@H]4[C@@](C)(CCC[C@@]4(C)C(=O)O[C@@H]4O[C@H](CO)[C@@H](O)[C@H](O)[C@H]4O)[C@@H]2CC[C@]1(O[C@@H]1O[C@H](CO)[C@@H](O)[C@H](O[C@@H]2O[C@H](CO)[C@@H](O)[C@H](O)[C@H]2O)[C@H]1O[C@@H]1O[C@H](CO)[C@@H](O)[C@H](O)[C@H]1O)C3 [Rebaudioside A, reference compound] | 29 |  | 16 | 14 |  |  |
